A short description of data set [1]: Solution stability of asenapine prodrugs as a function of pH. The data set is classed as physicochemical. Particulars: 0.01M buffers pH 2.11-9.01, 25° C., HPLC after 1, 4, 10 and 24 hours; FIG. 1 and 2. As for the experimental part:
The asenapine derived prodrugs were prepared at approximately 300 ug/mL in buffers (see table of buffers below). The initial ratio of prodrug/parent was measured using a freshly prepared solution in unbuffered water. Acetonitrile was titrated into all samples as needed to ensure the complete dissolution of the compounds. The amount of acetonitrile varied depending on the solubility of each compound (see Note 1). 1.5 mL of each stability sample was transferred into a HPLC vial and the vials were maintained at 25° C. in the temperature controlled sample compartment of the HPLC. Each sample was assayed by HPLC after 1, 4, 10, and 24 hours for prodrug and asenapine content (see Note 2).
The fraction of prodrug remaining at each time point was calculated as;
Fraction Prodrug=(HPLC Area of Prodrug)/(HPLC area of prodrug+asenapine) (see Note 3).
The loss of prodrug was then fit to the equation for first order decay:
Fraction Prodrug=(Initial Fraction prodrug)*e^−kt
where t=time (in hours) and k is the rate constant for decay. Finally, the half-lives are were calculated as
Note 1: The acetonitrile concentration is not expected to have a large impact on the degradation rate since the rate follows first order decay with respect to compound (ie, the rate constant is independent of the concentration). […]

Data set [2] relates to serotonergic (5-HT2A, 5-HT2C, 5-HT6, 5-HTS), noradrenergic (α2A, α2B, α2C) and dopaminergic (D3, D4) receptors. Particulars: background; cited from earlier work.
Data set [3] relates to muscarinic receptors. Particulars: background; cited from earlier work.
The nature of data set [4]: Pharmacokinetic evaluation of asenapine and asenapine prodrugs in rats. To be noted: rat plasma, 10 mg/rat IM, suspension in 1% HPMC in PBS saline with 0.2% Tween pH 6.0; FIG. 3. It is filed as in vivo, Sprague-Dawley rats. As for the experimental part: Animals: 18 Male Sprague-Dawley rats (Charles River Laboratories, Wilmington, Mass.) were used in the study. Three groups of 6 rats were used and are referred to in this study as Groups A, B and C. Rats were approximately 350-375 g at time of arrival. Rats are housed 2 per cage with ad libitum chow and water. Environmental conditions in the housing room: 64-67° F., 30% to 70% relative humidity, and 12:12-h light:dark cycle. All experiments were approved by the institutional animal care and use committee.
Test Compounds: The following formulations of Asenapine parent drug and prodrug compounds of the invention were used in the study.
Pharmacokinetics study: Rats were dosed IM by means of a 23 gauge, 1 in. needle with 1 cc syringe 0.3 mL suspension was withdrawn from the vial containing the test compound. The rat was injected in the muscles of the hind limb after anesthesia with isoflourane. Blood samples were collected via a lateral tail vein after brief anesthesia with Isoflurane. A 27½G needle and 1 cc syringe without an anticoagulant was used for the blood collection. […]
Data Analysis: Drug concentrations in plasma samples were analyzed by liquid chromatography—mass spectroscopy using appropriate parameters for each compound. Half-life, volume of distribution, clearance, maximal concentration, and AUC were calculated by using WinNonlin version 5.2 software (Pharsight, St. Louis, Mo.).

As to `CC(C)(C)C(=O)OC[N+]1(C)CC2c3ccccc3Oc3ccc(Cl)cc3C2C1.[Cl-]` (stereo not shown) [asenapine pivalate], in data set [1], the “Solution stability (loss of prodrug to asenapine)” value is “more stable than the asenapine octanoate”.

In the case of `CN1CC2c3ccccc3Oc3ccc(Cl)cc3C2C1` (stereo not shown) [Asenapine], the “Affinity relative to D2 receptors” value in data set [2] is listed as “higher affinity”. For the same compound, the Affinity entry in data set [3] is listed as “minimal affinity”.

`CCC(C)(C)C(=O)OC[N+]1(C)CC2c3ccccc3Oc3ccc(Cl)cc3C2C1.[I-]` (stereo not shown) [ASN-83, Asenapine dimethyl butyrate prodrug]: in data set [4], the Cmax result is recorded as “lower than the Cmax of the parent Asenapine formulation as well as lower than that of the Asenapine palmitate prodrug (ASN-76)”.

Source of the values: patent publication US20110166194A1, “Asenapine Prodrugs” (Alkermes, Inc., priority 2010, published 2011).
